Where two headings read alike, the source gives them in different places.
What was measured:
[1] = tested on: K562/adriamycin-resistant cells; assay: MTT assay: dofediquar effect on ADM cytotoxicity / growth of MDR cells; format: cell-based; conditions: for Growth rate (% of control): 2nd incubation (24 hr) without MS-209, MS-209 3 μM where present
[2] = Pharmacokinetics of dofediquar after single oral administration to fasted healthy male volunteers; format: in vivo, healthy male Japanese adults; conditions: for AUC / Cmax / Tmax / t½: mean ± S.D.
Description: The pharmacokinetic parameters of dofediquar (MS-209) are investigated in fasted healthy male Japanese adults. The study design is described in Table 2. The plasma concentrations of dofediquar after single oral administration of increasing doses from 100 to 1200 mg to fasted healthy male Japanese adults is illustrated in FIGS. 2 and 3.

[3] = Concentrations of dofediquar in plasma and tumor tissue after single oral administration in colon 26-bearing mice; format: in vivo; conditions: for Concentration of MS-209, Plasma / Concentration of MS-209, Tumor: mean ± SD of N = 3
[4] = tested on: drug-resistant cancer cell lines; assay: In vitro studies using drug-resistant cancer cell lines (effective concentration); format: cell-based
Description: The effective concentration of dofediquar of about 3 μM (ca. 2 μg/mL) indicated in in vitro studies using drug-resistant cancer cell lines, is achieved at doses of 300 mg or higher.

[5] = 100 mg single oral dose, fasted
[6] = 300 mg single oral dose, fasted
[7] = 600 mg single oral dose, fasted
[8] = 900 mg single oral dose, fasted
[9] = 1200 mg single oral dose, fasted
[10] = single oral doses 100 to 1200 mg
[11] = 0.5 h after single oral 200 mg/kg
[12] = 1 h after single oral 200 mg/kg
[13] = 2 h after single oral 200 mg/kg
[14] = 5 h after single oral 200 mg/kg
[15] = 24 h after single oral 200 mg/kg

COc1cccc2c1C(=O)c1c(O)c3c(c(O)c1C2=O)C[C@@](O)(C(=O)CO)C[C@@H]3O[C@H]1C[C@H](N)[C@H](O)[C@H](C)O1 [ADM, adriamycin]
Growth rate (% of control) ([1]; ADM 100 ng/ml, 1st incubation 1 hr): 93.4 % of control
Growth rate (% of control) ([1]; ADM 100 ng/ml, 1st incubation 3 hr): 102 % of control
Growth rate (% of control) ([1]; ADM 100 ng/ml, 1st incubation 6 hr): 92.0 % of control
Growth rate (% of control) ([1]; ADM 300 ng/ml, 1st incubation 1 hr): 88.1 % of control
Growth rate (% of control) ([1]; ADM 300 ng/ml, 1st incubation 6 hr): 100 % of control

O=C(C(c1ccccc1)c1ccccc1)N1CCN(CC(O)COc2cccc3ncccc23)CC1 (stereo not drawn) [dofediquar]
Cell growth inhibition with vs without dofediquar during the 2nd incubation ([1]; co-treated with adriamycin (100-300 ng/ml) and dofediquar (3 μM), then 2nd incubation (24 hr) with dofediquar alone): slightly more inhibited
Enhancement of ADM cytotoxicity ([1]; pretreated with 3 μM dofediquar for 24 hours, washed away, then ADM alone for 72 hours (FIG. 1)): does not show an enhancement of ADM cytotoxicity
AUC [2, 5]: 720 ± 210 ng·h/mL
Cmax [2, 5]: 470 ± 200 ng/mL
Tmax [2, 5]: 1.04 ± 0.40 h
t½ [2, 5]: 0.89 ± 0.37 h
AUC [2, 6]: 7290 ± 2540 ng·h/mL
Cmax [2, 6]: 2700 ± 740 ng/mL
Tmax [2, 6]: 1.04 ± 0.40 h
t½ [2, 6]: 1.17 ± 0.25 h
AUC [2, 7]: 32470 ± 5940 ng·h/mL
Cmax [2, 7]: 10110 ± 2140 ng/mL
Tmax [2, 7]: 0.75 ± 0.22 h
t½ [2, 7]: 2.25 ± 0.47 h
AUC [2, 8]: 62900 ± 9670 ng·h/mL
Cmax [2, 8]: 14030 ± 2480 ng/mL
Tmax [2, 8]: 1.67 ± 0.68 h
t½ [2, 8]: 2.39 ± 0.37 h
AUC [2, 9]: 105390 ± 20100 ng·h/mL
Cmax [2, 9]: 20990 ± 2150 ng/mL
Tmax [2, 9]: 1.00 ± 0.27 h
t½ [2, 9]: 3.10 ± 0.31 h
Detection in plasma ([2]; dose of 10 mg, single oral): not detected
Detection in plasma ([2]; dose of 30 mg, single oral): detected in one of 6 subjects
Manner of decline of plasma concentration after the peak ([2]; doses of 100 mg or higher, single oral): declines in a monophasic manner
Dose at which the effective concentration of about 3 μM (ca. 2 μg/mL) is achieved in plasma ([2]; single oral dose, fasted): ≥ 300 mg
Dose dependence of Cmax and AUC [2, 10]: increase more steeply than expected from the dose increase
Dose dependence of Tmax [2, 10]: does not change
Dose dependence of half-life [2, 10]: increases with increasing dose
Concentration of MS-209, Plasma [3, 11]: 25600 ± 9300 ng/mL
Concentration of MS-209, Tumor [3, 11]: 15.9 ± 8.1 µg/g
Concentration of MS-209, Plasma [3, 12]: 33000 ± 6300 ng/mL
Concentration of MS-209, Tumor [3, 12]: 30.6 ± 7.5 µg/g
Concentration of MS-209, Plasma [3, 13]: 27300 ± 7000 ng/mL
Concentration of MS-209, Tumor [3, 13]: 28.0 ± 9.4 µg/g
Concentration of MS-209, Plasma [3, 14]: 24600 ± 10000 ng/mL
Concentration of MS-209, Tumor [3, 14]: 25.8 ± 10 µg/g
Concentration of MS-209, Plasma [3, 15]: 610 ± 410 ng/mL
Concentration of MS-209, Tumor [3, 15]: 0.52 ± 0.49 µg/g
AUC, Plasma ([3]; single oral 200 mg/kg): 368000 ng·h/mL
AUC, Tumor ([3]; single oral 200 mg/kg): 376 µg·h/g
Effective concentration [4]: about 3 μM
Effective concentration ([4]; same value as 3 μM): ca. 2 μg/mL
